Converted amounts (≈) assume the structure as drawn. The source made the active and inactive calls. No cut-off for these calls is given here.
Experiments:
Escherichia coli [1] = test: Antimicrobial activity against Escherichia coli at 10 ug/disk; assay type: functional, organism-based
Staphylococcus aureus [2] = test: Antimicrobial activity against Staphylococcus aureus at 10 ug/disk; assay type: functional, organism-based
HCT-116 = test: Cytotoxicity against human HCT116 cells; assay type: functional, cell-based
Escherichia coli [3] = test: Antimicrobial activity against Escherichia coli at 5 ug/disk; assay type: functional, organism-based
Staphylococcus aureus [4] = test: Antimicrobial activity against Staphylococcus aureus at 5 ug/disk; assay type: functional, organism-based
Escherichia coli [5] = test: Antimicrobial activity against Escherichia coli at 1 ug/disk; assay type: functional, organism-based
Staphylococcus aureus [6] = test: Antimicrobial activity against Staphylococcus aureus at 1 ug/disk; assay type: functional, organism-based

Row | SMILES | Activity (Escherichia coli [1]) | Activity (Staphylococcus aureus [2]) | IC50 (HCT-116) [µg/mL] | Activity (Escherichia coli [3]) | Activity (Staphylococcus aureus [4]) | Activity (Escherichia coli [5]) | Activity (Staphylococcus aureus [6])
1 | CC(C)=C1[C@H](O)C[C@@]2(C)C/C=C(\C)CC/C=C(\C)CC[C@H]12 (relative stereo) [ISOPALOMINOL] | inactive | inactive | 30 (≈ 104 µM) | inactive | inactive | inactive | inactive
2 | CC(C)=C1C(=O)C[C@@]2(C)C/C=C(\C)CC/C=C(\C)CC[C@H]12 [DOLABELLANE] | inactive | inactive | 10 (≈ 34.9 µM) | inactive | inactive | inactive | inactive
3 | C/C1=C\C[C@]2(C)CC=C(C(C)(C)O)[C@H]2CC/C(C)=C/CC1 [PALOMINOL] | inactive | inactive | 10 (≈ 34.7 µM) | inactive | inactive | inactive | inactive
4 | CC(C)=C1[C@H]2CC/C(C)=C/CC/C(C)=C/C[C@]2(C)C[C@@H]1O (relative stereo) | inactive | inactive | 9 (≈ 31.2 µM) | inactive | inactive | inactive | inactive

From ChEMBL document CHEMBL1147390, “The structure of palominol by interpretation of two-dimensional NMR shift correlation experiments: isolation and structure determination of isopalominol” (J Nat Prod, 1993)
